Experiments:
[1] = tested on: cultured rabbit trigeminal nerve cells; experiment: Promoting effect on neuritogenesis in cultured rabbit trigeminal nerve cells (Test Example 1); type: cell-based; details: 0.1 nM (0.026 ng/mL), 48 h culture after addition; mean±SD, N=5; control 29.5±8.7%
Text: (§1) Japanese White rabbits (4 days old, male) purchased from Oriental Yeast Co., Ltd. were used.
N-(1-acetylpiperidin-4-yl)-4-fluorobenzamide (hereinafter referred to as Compound A) was used.
Rabbit trigeminal nerve cells were isolated according to the report of Chan et al. (Kwan Y. Chan and Richard H. Haschke. Exp. Eye Res. 41: 687-699, 1985). Specifically, a rabbit underwent cardiac perfusion with physiological saline under anesthesia with pentobarbital sodium injection (Dainippon Sumitomo Pharma), after which the trigeminal ganglia thereof were cut out. […]
(§2) After the 48 hours of cultivation following the addition, the rabbit trigeminal nerve cells were immersed and fixed in 10% neutrally buffered formaldehyde solution at room temperature for 20 minutes. The specimens fixed were fluorescently stained using the anti-neurofilament 200 antibody (Sigma-Aldrich), which specifically recognizes neurofilaments constituting nerve cell bodies and neurites, and the cells stained were examined under a fluorescence microscope (Olympus). Stained cell were incorporated as images from the fluorescence microscope into a computer.
To evaluate the degree of neuritogenesis in the cultured rabbit trigeminal nerve cells, cell body diameters and neurite lengths were measured on the computer-captured stained cell images using image analysis software (Image-Pro Plus Ver. 4.5.1, Media Cybernetics). […]

[2] = tested on: rabbit retinal nerve cells; experiment: Promoting effect on neuritogenesis in rabbit retinal cells (Test Example 2); type: cell-based; details: 0.1 nM (0.026 ng/mL), 48 h culture after addition; FIG. 2
Protocol: as §1
A rabbit underwent cardiac perfusion with physiological saline under anesthesia with pentobarbital sodium injection (Dainippon Sumitomo Pharma), after which the eyeballs were extirpated and the retinas were isolated. The retinas isolated were placed in a papain solution (1 mg/mL, Sigma-Aldrich Japan K.K.) suspended in Hanks' balanced salt solution (HBSS, Invitrogen), and subjected to enzymatic digestion at 37° C. for 30 minutes. Thereafter, Leibovitz's L-15 Medium (L-15, Invitrogen) was used to prepare reagents. After the suspension was allowed to stand, the supernatant was discarded, 3 mL of a trypsin inhibitor solution (2 mg/mL trypsin inhibitor, 0.004% DNase and 1 mg/mL Bovine Serum Albumin dissolved in L-15, pH 7.4) was added, and pipetting was performed. After the solution was allowed to stand, the supernatant was discarded, another 3 mL of the trypsin inhibitor solution was added, pipetting was performed, and this operation was once again repeated; centrifugation was performed at 120×g for 5 minutes, and the supernatant was removed. […]

[3] = tested on: cultured rabbit trigeminal nerve cells; experiment: Promoting effect on neuritogenesis in cultured rabbit trigeminal nerve cells, concentration series (Test Example 3); type: cell-based; details: for Ratio (%) of neuritogenesis cells: 48 h, mean±SD, control 30.4 ± 19.5
Text: as §1
Rabbit trigeminal nerve cells were isolated according to the report by Chan et al. (Kwan Y. Chan and Richard H. Haschke. Exp. Eye Res. 41: 687-699, 1985). Specifically, a rabbit underwent cardiac perfusion with physiological saline under anesthesia with pentobarbital sodium injection (Dainippon Sumitomo Pharma), after which the trigeminal ganglia were cut out. The trigeminal ganglia cut out were washed with Hanks' balanced salt solution (HBSS, Invitrogen), and thereafter treated with 300 μg/mL collagenase-dispase (Roche) at 37° C. for 40 minutes; centrifugation was performed at 120×g for 5 minutes, and the cells were collected. The enzyme reaction was stopped with Neurobasal (registered trademark, Invitrogen) supplemented with EDTA at a final concentration of 0.1%, and the cells were suspended in culture medium, after which centrifugation was performed at 120×g for 5 minutes, and trigeminal nerve cells were prepared.
The cells prepared were seeded in a 8-well chamber slide coated with polylysine/laminin (Falcon) at about 3×10^3 cells/well; after the seeding, the cells were cultured for 24 hours. After the 24 hours, each of Compound A (final concentration: 0.001 nM (0.00026 ng/mL), 0.1 nM (0.026 ng/ml), 10 nM (2.6 ng/mL), 1000 nM (260 ng/mL)) and NGF (final concentration 1 μg/ml) as a positive control or PBS as a control, was added to the culture medium. After the addition, the cells were further cultured for 48 hours.
The culture medium used was a Neurobasal containing the B27 supplement (Invitrogen) (final concentration 2% (v/v)), L-glutamine (Invitrogen) (final concentration 1 mM) and cytosine-1-β-D(+)arabinofuranoside (final concentration 10 μM). Culturing conditions were set at a carbon dioxide concentration of 5%, an air concentration of 95%, a humidity of 100%, and a temperature of 37° C.
as §2, with “of cultivation,” for “of cultivation following the addition,”, “Stained cells” for “Stained cell”
To evaluate the degree of neuritogenesis in the cultured rabbit trigeminal nerve cells, cell body diameters and neurite lengths were measured on the computer-captured stained cell images using image analysis software (Image-Pro Plus Ver. 4.5.1, Media Cybernetics). Cells having a neurite with a length of not less than twice the diameter of the cell body were regarded as neuritogenesis cells, and the ratio (%) of the cells to the total cell count was calculated (Otori Y, Wei J Y, Barnstable C J. Invest. Opthalmol V is Sci (1998) 39, 972-981).

[4] = tested on: corneal sensitivity after corneal flap creation; experiment: Improving effect on rabbit corneal hyposensitivity after corneal flap creation (Test Example 4); type: in vivo; details: 1 nM ophthalmic solution, instillation 50 μL four times a day for 6 weeks
Protocol: Japanese White rabbits weighing 2.5 to 3.0 kg purchased from KITAYAMA LABES were used. From arrival to the day of test completion, the animals were kept in a breeding room set at a room temperature of 23±3° C., a humidity of 55±10%, and 12-hour lighting (lighted on at 8:00, lighted off at 20:00) at one animal per cage. Each animal was fed up to 100 to 120 g of a solid food (Labo R Stock, Nosan Corporation) a day, and had free access to tap water.
Compound A was used as a test substance. The test substance was dissolved in the base shown below to obtain a concentration of 1 nM (0.00000026%) to yield an ophthalmic solution. For a control group, the following base, free of the test substance, was administered by instillation.
3. Test Procedures 1) Grouping
On the day before flap creation, the animals were macroscopically examined for the ocular surface and examined for fluorescein-stained spots in the cornea; rabbits with no abnormalities observed therein were selected, and initial values of corneal sensitivity were measured using the Cochet-Bonnet aesthesiometer (manufactured by Luneau). […]
One week, 2 weeks, 4 weeks or 6 weeks after surgery, corneal sensitivity was measured using the Cochet-Bonnet aesthesiometer. […]

In the case of `CC(=O)N1CCC(NC(=O)c2ccc(F)cc2)CC1` [Compound A, N-(1-acetylpiperidin-4-yl)-4-fluorobenzamide], the “ratio of neuritogenesis cells to all cells” value [1] was 63.3±5.2%, the “neuritogenesis in retinal nerve cells stained with anti-neurofilament antibody” value [2] was “Remarkable neuritogenesis was observed” and the “Ratio (%) of neuritogenesis cells” value ([3]; 0.001 nM) was 33.6 ± 16.3%. For the same compound, the “Ratio (%) of neuritogenesis cells” value ([3]; 0.1 nM, *p<0.05 vs control) was 45.9 ± 15.1* %, the “Ratio (%) of neuritogenesis cells” value ([3]; 10 nM) was 37.2 ± 16.5% and the “Ratio (%) of neuritogenesis cells” value ([3]; 1000 nM) was 37.0 ± 20.0%. The “optimum concentration for promoting effect on neuritogenesis in trigeminal nerve cells” value ([3]; tested at 0.001, 0.1, 10, 1000 nM) was 0.1 nM, the “time when a sense was observed for the first time after corneal flap creation (first measured value of 5 mm filament length or more)” value ([4]; average, vehicle group 5.5 weeks) was 4.1 weeks and the “recovery from decreased corneal sensitivity after flap creation (Cochet-Bonnet aesthesiometer)” value ([4]; versus vehicle instillation group, FIG. 3) was “accelerated recovery from decreased corneal sensitivity after flap creation”.

From patent US8637544B2, “Neurite formation promoter” (Senju Pharmaceutical Co., Ltd., priority 2007, dated 2014)
